Experimental data as given in article PMC9898036, “VIP152 is a selective CDK9 inhibitor with pre-clinical in vitro and in vivo efficacy in chronic lymphocytic leukemia” (Leukemia, 2022).
Read-outs that look alike come from different tables or passages of the source.

Assays:
Assay in all cases: DiscoverX KINOMEscan kinase profiling (468 assays)
Format in all cases: binding
human kinome [1] = target: human kinome (Homo sapiens, UniProt P08581); settings: MET; 100 nM; read-out: Percent Control
How it was run: (§1)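 DNA-tagged kinases competed for immobilized biotinylated ligands on streptavidin magnetic beads, with bound kinase quantified by qPCR. VIP152 in DMSO was tested against a DMSO control.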

human kinome [2] = target: human kinome (Homo sapiens, UniProt Q8TDC3); settings: BRSK1; 100 nM; read-out: Percent Control
How it was run: as §1

human kinome [3] = target: human kinome (Homo sapiens, UniProt P19784); settings: CSNK2A2; 100 nM; read-out: Percent Control
Chain of human kinome (Homo sapiens, UniProt P19784) (P19784 whole entry): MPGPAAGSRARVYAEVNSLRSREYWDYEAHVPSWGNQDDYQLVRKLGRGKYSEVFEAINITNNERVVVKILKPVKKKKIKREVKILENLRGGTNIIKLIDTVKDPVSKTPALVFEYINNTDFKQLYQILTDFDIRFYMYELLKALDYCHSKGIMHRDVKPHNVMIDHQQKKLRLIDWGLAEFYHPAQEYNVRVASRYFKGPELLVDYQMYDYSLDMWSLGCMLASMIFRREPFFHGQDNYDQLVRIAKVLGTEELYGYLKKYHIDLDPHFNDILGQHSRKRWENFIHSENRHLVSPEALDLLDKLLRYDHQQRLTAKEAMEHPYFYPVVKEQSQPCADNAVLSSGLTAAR
How it was run: as §1

human kinome [4] = target: human kinome (Homo sapiens, UniProt O94921); settings: read-out: Percent Control
Chain of human kinome (Homo sapiens, UniProt O94921) (O94921 whole entry): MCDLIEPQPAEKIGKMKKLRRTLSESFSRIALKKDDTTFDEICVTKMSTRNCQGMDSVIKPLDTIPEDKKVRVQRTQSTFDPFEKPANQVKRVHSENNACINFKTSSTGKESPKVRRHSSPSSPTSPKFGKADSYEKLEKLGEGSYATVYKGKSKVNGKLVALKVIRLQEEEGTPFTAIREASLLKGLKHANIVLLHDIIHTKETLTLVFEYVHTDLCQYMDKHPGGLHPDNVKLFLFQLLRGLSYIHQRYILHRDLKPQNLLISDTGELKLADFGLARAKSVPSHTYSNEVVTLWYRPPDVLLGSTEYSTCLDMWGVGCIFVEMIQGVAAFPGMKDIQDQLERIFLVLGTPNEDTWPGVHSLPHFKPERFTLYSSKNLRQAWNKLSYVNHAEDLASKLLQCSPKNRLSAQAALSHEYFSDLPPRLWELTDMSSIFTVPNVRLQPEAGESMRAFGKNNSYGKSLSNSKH
How it was run: as §1

human kinome [5] = target: human kinome (Homo sapiens, UniProt Q99683); settings: ASK1 (Entrez MAP3K5); 100 nM; read-out: Percent Control
How it was run: as §1

human kinome [6] = target: human kinome (Homo sapiens, UniProt Q9Y2H1); settings: read-out: Percent Control
How it was run: as §1

human kinome [7] = target: human kinome (Homo sapiens, UniProt Q96J92); settings: kinase WNK4 (Entrez WNK4); compound concentration 1000 nM; read-out: Percent Control
How it was run: as §1

human kinome [8] = target: human kinome (Homo sapiens, UniProt P20794); settings: MAK; 100 nM; read-out: Percent Control
How it was run: as §1

human kinome [9] = target: human kinome (Homo sapiens, UniProt O14730); settings: kinase RIOK3 (Entrez RIOK3); compound concentration 1000 nM; read-out: Percent Control
How it was run: as §1

human kinome [10] = target: human kinome (Homo sapiens, UniProt Q14289); settings: read-out: Percent Control
Chain of human kinome (Homo sapiens, UniProt Q14289) (Q14289 whole entry): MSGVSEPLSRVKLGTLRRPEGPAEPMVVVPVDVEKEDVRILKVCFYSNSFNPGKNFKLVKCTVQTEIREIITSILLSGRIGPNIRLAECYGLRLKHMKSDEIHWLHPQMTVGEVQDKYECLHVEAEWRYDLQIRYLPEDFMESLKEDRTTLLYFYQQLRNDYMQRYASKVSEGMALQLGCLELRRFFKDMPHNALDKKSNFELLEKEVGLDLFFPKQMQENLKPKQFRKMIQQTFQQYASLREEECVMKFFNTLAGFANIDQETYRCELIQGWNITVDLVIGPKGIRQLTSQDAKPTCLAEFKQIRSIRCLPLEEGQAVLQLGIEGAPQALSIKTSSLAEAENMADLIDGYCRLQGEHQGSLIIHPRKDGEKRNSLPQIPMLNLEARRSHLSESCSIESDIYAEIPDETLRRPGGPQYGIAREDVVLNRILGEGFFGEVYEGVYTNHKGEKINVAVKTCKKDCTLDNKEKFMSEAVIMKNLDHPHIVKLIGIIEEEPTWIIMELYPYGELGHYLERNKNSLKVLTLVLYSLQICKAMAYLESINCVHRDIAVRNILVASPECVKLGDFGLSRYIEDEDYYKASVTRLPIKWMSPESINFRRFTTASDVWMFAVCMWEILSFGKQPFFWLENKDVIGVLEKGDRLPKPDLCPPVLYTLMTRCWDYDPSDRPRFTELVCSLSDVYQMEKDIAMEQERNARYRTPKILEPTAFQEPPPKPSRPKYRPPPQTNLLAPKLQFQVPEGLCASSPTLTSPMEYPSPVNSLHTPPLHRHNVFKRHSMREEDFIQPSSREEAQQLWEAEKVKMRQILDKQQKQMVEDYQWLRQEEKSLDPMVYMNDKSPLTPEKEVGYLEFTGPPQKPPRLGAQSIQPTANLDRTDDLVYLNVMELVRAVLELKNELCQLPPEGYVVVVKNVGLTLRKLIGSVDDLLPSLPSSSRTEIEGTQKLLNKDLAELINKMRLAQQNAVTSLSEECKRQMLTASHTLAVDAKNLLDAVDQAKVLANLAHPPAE
How it was run: as §1

human kinome [11] = target: human kinome (Homo sapiens, UniProt Q13557); settings: CAMK2D; 100 nM; read-out: Percent Control
How it was run: as §1

human kinome [12] = target: human kinome (Homo sapiens, UniProt Q9H2K8); settings: kinase TAOK3 (Entrez TAOK3); compound concentration 1000 nM; read-out: Percent Control
How it was run: as §1

human kinome [13] = target: human kinome (Homo sapiens, UniProt P42336, Q546K); settings: read-out: Percent Control
How it was run: as §1

human kinome [14] = target: human kinome (Homo sapiens, UniProt O60285); settings: ARK5 (Entrez NUAK1); 100 nM; read-out: Percent Control
How it was run: as §1

human kinome [15] = target: human kinome (Homo sapiens, UniProt Q92918); settings: HPK1 (Entrez MAP4K1); 100 nM; read-out: Percent Control
How it was run: as §1

human kinome [16] = target: human kinome (Homo sapiens, UniProt O00238); settings: BMPR1B; 100 nM; read-out: Percent Control
How it was run: as §1

human kinome [17] = target: human kinome (Homo sapiens, UniProt Q9UM73); settings: ALK; 100 nM; read-out: Percent Control
How it was run: as §1

human kinome [18] = target: human kinome (Homo sapiens, UniProt Q15835); settings: GRK1; 100 nM; read-out: Percent Control
How it was run: as §1

human kinome [19] = target: human kinome (Homo sapiens, UniProt P08631); settings: HCK; 100 nM; read-out: Percent Control
How it was run: as §1

human kinome [20] = target: human kinome (Homo sapiens, UniProt Q9UBF8); settings: read-out: Percent Control
Chain of human kinome (Homo sapiens, UniProt Q9UBF8) (Q9UBF8 whole entry): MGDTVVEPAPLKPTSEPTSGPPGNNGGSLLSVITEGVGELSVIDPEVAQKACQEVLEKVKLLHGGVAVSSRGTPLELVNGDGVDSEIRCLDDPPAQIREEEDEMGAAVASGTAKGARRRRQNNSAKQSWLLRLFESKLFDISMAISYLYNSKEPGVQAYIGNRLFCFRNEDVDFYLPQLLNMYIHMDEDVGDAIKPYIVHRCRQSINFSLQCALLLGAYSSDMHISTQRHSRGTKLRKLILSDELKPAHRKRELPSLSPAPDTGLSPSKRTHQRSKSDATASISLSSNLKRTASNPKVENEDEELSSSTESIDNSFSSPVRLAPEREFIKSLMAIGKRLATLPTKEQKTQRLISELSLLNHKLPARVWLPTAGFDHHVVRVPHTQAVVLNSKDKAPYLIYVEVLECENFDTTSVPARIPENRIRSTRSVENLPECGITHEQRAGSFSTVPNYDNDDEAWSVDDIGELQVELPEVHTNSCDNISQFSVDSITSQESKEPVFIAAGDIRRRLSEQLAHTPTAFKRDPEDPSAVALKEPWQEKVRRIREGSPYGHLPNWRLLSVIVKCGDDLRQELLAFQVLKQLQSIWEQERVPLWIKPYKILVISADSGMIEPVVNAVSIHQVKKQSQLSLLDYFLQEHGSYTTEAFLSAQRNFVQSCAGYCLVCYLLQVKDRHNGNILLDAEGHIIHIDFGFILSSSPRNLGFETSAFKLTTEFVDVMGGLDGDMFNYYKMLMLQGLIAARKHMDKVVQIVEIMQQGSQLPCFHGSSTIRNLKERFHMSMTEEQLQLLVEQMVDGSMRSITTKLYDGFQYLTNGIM
How it was run: as §1

human kinome [21] = target: human kinome (Homo sapiens, UniProt P16234); settings: read-out: Percent Control
Chain of human kinome (Homo sapiens, UniProt P16234) (P16234 24-1089): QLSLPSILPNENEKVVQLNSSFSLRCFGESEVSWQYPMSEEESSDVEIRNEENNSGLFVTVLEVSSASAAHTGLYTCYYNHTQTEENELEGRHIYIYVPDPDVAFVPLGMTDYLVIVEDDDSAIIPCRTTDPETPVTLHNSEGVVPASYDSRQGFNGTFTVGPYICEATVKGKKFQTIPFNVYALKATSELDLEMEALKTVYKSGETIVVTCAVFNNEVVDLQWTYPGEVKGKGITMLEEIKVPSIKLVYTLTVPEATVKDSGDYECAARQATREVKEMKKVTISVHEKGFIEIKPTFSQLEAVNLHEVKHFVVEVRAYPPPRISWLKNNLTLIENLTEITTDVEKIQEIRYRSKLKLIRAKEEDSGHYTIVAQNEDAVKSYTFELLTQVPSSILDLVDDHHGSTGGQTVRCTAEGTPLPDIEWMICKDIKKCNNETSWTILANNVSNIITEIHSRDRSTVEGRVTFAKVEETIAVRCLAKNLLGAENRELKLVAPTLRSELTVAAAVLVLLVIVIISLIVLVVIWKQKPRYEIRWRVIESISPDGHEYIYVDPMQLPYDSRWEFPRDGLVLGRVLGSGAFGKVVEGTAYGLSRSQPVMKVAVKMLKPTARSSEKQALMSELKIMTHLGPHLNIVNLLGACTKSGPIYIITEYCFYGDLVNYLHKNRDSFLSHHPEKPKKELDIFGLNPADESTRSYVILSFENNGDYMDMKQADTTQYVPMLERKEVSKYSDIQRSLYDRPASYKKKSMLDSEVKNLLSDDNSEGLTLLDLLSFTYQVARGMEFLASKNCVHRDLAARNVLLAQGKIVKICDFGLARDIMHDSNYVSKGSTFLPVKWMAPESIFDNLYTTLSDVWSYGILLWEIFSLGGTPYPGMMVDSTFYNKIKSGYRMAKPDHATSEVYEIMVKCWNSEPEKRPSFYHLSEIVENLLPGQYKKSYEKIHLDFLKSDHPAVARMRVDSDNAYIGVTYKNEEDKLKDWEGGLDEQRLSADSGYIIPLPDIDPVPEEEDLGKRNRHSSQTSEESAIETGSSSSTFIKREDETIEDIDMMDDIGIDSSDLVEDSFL
How it was run: as §1

human kinome [22] = target: human kinome (Homo sapiens, UniProt Q9UPE1); settings: kinase SRPK3 (Entrez SRPK3); compound concentration 1000 nM; read-out: Percent Control
How it was run: as §1

human kinome [23] = target: human kinome (Homo sapiens, UniProt P42336, H1047L); settings: read-out: Percent Control
How it was run: as §1

human kinome [24] = target: human kinome (Homo sapiens, UniProt P54762); settings: EPHB1; 100 nM; read-out: Percent Control
How it was run: as §1

human kinome [25] = target: human kinome (Homo sapiens, UniProt Q6ZWH5); settings: read-out: Percent Control
How it was run: as §1

human kinome [26] = target: human kinome (Homo sapiens, UniProt Q16816); settings: read-out: Percent Control
Chain of human kinome (Homo sapiens, UniProt Q16816) (Q16816 whole entry): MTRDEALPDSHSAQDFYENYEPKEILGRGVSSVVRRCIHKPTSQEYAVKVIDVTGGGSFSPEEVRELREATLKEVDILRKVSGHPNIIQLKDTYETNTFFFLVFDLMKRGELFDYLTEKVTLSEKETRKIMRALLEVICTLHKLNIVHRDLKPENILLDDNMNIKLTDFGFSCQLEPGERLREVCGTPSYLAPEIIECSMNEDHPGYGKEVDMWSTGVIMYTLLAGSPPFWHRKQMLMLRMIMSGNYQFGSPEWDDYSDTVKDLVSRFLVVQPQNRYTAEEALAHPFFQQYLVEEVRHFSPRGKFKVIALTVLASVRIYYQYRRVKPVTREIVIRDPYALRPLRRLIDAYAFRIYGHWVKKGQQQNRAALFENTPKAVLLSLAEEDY
How it was run: as §1

human kinome [27] = target: human kinome (Homo sapiens, UniProt P06241); settings: FYN; 100 nM; read-out: Percent Control
How it was run: as §1

human kinome [28] = target: human kinome (Homo sapiens, UniProt Q8IU85); settings: CAMK1D; 100 nM; read-out: Percent Control
How it was run: as §1

human kinome [29] = target: human kinome (Homo sapiens, UniProt P36888); settings: 100 nM, read-out: Percent Control
Chain of human kinome (Homo sapiens, UniProt P36888) (P36888 27-993): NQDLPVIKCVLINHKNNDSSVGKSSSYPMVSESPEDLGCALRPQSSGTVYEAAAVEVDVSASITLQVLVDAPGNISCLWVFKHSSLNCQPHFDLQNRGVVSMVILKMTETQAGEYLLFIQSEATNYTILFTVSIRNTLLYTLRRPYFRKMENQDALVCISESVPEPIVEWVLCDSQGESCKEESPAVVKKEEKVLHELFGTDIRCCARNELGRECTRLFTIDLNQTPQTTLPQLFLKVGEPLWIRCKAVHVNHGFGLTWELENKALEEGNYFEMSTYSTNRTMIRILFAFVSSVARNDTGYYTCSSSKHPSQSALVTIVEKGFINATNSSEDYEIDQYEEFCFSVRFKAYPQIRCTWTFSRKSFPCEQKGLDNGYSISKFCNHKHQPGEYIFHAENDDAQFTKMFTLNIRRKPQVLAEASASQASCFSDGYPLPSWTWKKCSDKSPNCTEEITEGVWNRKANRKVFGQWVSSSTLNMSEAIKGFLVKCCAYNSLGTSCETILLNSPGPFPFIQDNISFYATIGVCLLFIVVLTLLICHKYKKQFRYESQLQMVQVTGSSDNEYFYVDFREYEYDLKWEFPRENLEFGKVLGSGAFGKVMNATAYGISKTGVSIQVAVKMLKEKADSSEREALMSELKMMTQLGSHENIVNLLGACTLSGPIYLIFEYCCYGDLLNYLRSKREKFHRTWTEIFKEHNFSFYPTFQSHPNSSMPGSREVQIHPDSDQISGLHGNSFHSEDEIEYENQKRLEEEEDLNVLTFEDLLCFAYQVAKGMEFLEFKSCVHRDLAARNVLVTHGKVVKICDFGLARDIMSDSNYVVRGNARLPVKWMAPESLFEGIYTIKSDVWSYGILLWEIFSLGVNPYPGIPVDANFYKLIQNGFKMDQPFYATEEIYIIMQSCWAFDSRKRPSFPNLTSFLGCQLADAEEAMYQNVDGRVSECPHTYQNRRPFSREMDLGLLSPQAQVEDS
How it was run: as §1

human kinome [30] = target: human kinome (Homo sapiens, UniProt Q5S007); settings: LRRK2; 100 nM; read-out: Percent Control
How it was run: as §1

Structure (SMILES): COc1cc(F)ccc1-c1cc(Nc2cc(CS(C)(=N)=O)ccn2)ncc1F (stereo not shown) [VIP152]
- remaining binding at 0.1 µM (human kinome [1]): 57%
- remaining binding at 0.1 µM (human kinome [2]): 100%
- remaining binding at 0.1 µM (human kinome [3]): 100%
- remaining binding at 0.1 µM (human kinome [4]; PFTK1 (Entrez CDK14), 100 nM): 100%
- remaining binding at 1 µM (human kinome [4]; kinase PFTK1 (Entrez CDK14), compound concentration 1000 nM): 84%
- remaining binding at 0.1 µM (human kinome [5]): 100%
- remaining binding at 0.1 µM (human kinome [6]; NDR2 (Entrez STK38L), 100 nM): 100%
- remaining binding at 1 µM (human kinome [6]; kinase NDR2 (Entrez STK38L), compound concentration 1000 nM): 100%
- remaining binding at 1 µM (human kinome [7]): 80%
- remaining binding at 0.1 µM (human kinome [8]): 100%
- remaining binding at 1 µM (human kinome [9]): 79%
- remaining binding at 0.1 µM (human kinome [10]; PYK2 (Entrez PTK2B), 100 nM): 100%
- remaining binding at 1 µM (human kinome [10]; kinase PYK2 (Entrez PTK2B), compound concentration 1000 nM): 90%
- remaining binding at 0.1 µM (human kinome [11]): 100%
- remaining binding at 1 µM (human kinome [12]): 57%
- remaining binding at 0.1 µM (human kinome [13]; PIK3CA(Q546K), 100 nM): 100%
- remaining binding at 1 µM (human kinome [13]; kinase PIK3CA(Q546K) (Entrez PIK3CA), compound concentration 1000 nM): 96%
- remaining binding at 0.1 µM (human kinome [14]): 100%
- remaining binding at 0.1 µM (human kinome [15]): 90%
- remaining binding at 0.1 µM (human kinome [16]): 95%
- remaining binding at 0.1 µM (human kinome [17]): 100%
- remaining binding at 0.1 µM (human kinome [18]): 95%
- remaining binding at 0.1 µM (human kinome [19]): 97%
- remaining binding at 0.1 µM (human kinome [20]; PIK4CB (Entrez PI4KB), 100 nM): 100%
- remaining binding at 1 µM (human kinome [20]; kinase PIK4CB (Entrez PI4KB), compound concentration 1000 nM): 95%
- remaining binding at 0.1 µM (human kinome [21]; PDGFRA, 100 nM): 100%
- remaining binding at 1 µM (human kinome [21]; kinase PDGFRA (Entrez PDGFRA), compound concentration 1000 nM): 80%
- remaining binding at 1 µM (human kinome [22]): 68%
- remaining binding at 0.1 µM (human kinome [23]; PIK3CA(H1047L), 100 nM): 100%
- remaining binding at 1 µM (human kinome [23]; kinase PIK3CA(H1047L) (Entrez PIK3CA), compound concentration 1000 nM): 100%
- remaining binding at 0.1 µM (human kinome [24]): 100%
- remaining binding at 0.1 µM (human kinome [25]; NEK10, 100 nM): 97%
- remaining binding at 1 µM (human kinome [25]; kinase NEK10 (Entrez NEK10), compound concentration 1000 nM): 77%
- remaining binding at 0.1 µM (human kinome [26]; PHKG1, 100 nM): 97%
- remaining binding at 1 µM (human kinome [26]; kinase PHKG1 (Entrez PHKG1), compound concentration 1000 nM): 96%
- remaining binding at 0.1 µM (human kinome [27]): 100%
- remaining binding at 0.1 µM (human kinome [28]): 100%
- remaining binding at 0.1 µM (human kinome [29]; FLT3-autoinhibited): 99%
- remaining binding at 0.1 µM (human kinome [29]; FLT3): 72%
- remaining binding at 0.1 µM (human kinome [30]): 100%
